Laboratory results: patent US7704995B2 (Exelixis, Inc., priority 2003, dated 2010)
Where two headings read alike, the source gives them in different places.

Target: T1, Chk1 (Homo sapiens, UniProt O14757)
T1 construct: purchased Upstate Biotechnology
T1 sequence (O14757 1-476): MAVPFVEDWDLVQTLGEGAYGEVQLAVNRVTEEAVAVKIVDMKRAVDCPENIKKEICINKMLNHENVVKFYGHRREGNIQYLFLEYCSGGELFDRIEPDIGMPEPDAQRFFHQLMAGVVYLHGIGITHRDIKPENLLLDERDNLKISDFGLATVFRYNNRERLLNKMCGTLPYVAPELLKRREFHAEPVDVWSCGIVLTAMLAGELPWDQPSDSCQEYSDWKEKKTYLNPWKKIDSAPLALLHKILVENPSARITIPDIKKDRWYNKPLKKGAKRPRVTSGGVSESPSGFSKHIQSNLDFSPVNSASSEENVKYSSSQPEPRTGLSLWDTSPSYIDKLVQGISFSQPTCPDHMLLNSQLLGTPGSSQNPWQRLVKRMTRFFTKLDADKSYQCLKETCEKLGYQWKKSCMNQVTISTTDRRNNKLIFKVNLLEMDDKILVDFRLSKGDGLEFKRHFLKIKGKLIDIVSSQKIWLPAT
Assay: Chk1 kinase assay: incorporation of γ-33P ATP into immobilized myelin basic protein
Type: biochemical
Settings: read-out: Chk1 IC50
Method in brief: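 Plates coated with MBP, then kinase reactions in Hepes pH 7.6 buffer with 10 mM MgCl2 and 1% DMSO were started by adding unlabeled plus γ-33P ATP (10 μM for Chk1 at 10 nM enzyme; 30 μM for Chk2 at 20 nM enzyme). After 1 h at room temperature, plates were washed and counted.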

[1] = Table 11, Chk1 only, class symbols A-D

| IC50 [µM] | IC50 (Table 11, Chk1 only) [µM] | SMILES | also measured |
| --- | --- | --- | --- |
| 1 to 10 |  | CCNC(=O)c1nc(-c2cccc(N)c2)cnc1N [Example 88, 3-amino-6-(3-aminophenyl)-N-ethylpyrazine-2-carboxamide] |  |
|  | 1 to 10 | Nc1ncc(-c2cccc(C(=O)NCc3ccccc3)c2)nc1C(=O)NCCNC(=O)c1ccncc1 [Example 658, 3-amino-6-(3-{[(phenylmethyl)amino]carbonyl}phenyl)-N-{2-[(pyridin-4-ylcarbonyl)amino]ethyl}pyrazine-2-carboxamide] |  |
|  | 0.05 to 1 | CNC(=O)c1nc(-c2cccc(CNC3CCc4c(F)cccc43)c2)cnc1N (centres unmarked) [Example 473, 3-amino-6-(3-{[(4-fluoro-2,3-dihydro-1H-inden-1-yl)amino]methyl}phenyl)-N-methylpyrazine-2-carboxamide] |  |
|  | 0.05 to 1 | Nc1ncc(-c2cccc(C(=O)N3CCc4ccccc4C3)c2)nc1C(=O)N[C@H]1CCNC1 [Example 714, 3-amino-6-[3-(3,4-dihydroisoquinolin-2(1H)-ylcarbonyl)phenyl]-N-[(3S)-pyrrolidin-3-yl]pyrazine-2-carboxamide] |  |
|  | 0.05 to 1 | CNC(=O)c1nc(-c2cccc(C(=O)NNc3c(F)c(F)cc(F)c3F)c2)cnc1N [Example 434, 3-amino-N-methyl-6-(3-{[2-(2,3,5,6-tetrafluorophenyl)hydrazino]carbonyl}phenyl)pyrazine-2-carboxamide] |  |
|  |  | Nc1ncc(-c2cccc(C(=O)NCc3cccc(F)c3F)c2)nc1C(=O)N[C@H]1CCCNC1 [Example 1017, 3-amino-6-[3-({[(2,3-difluorophenyl)methyl]amino}carbonyl)phenyl]-N-[(3S)-piperidin-3-yl]pyrazine-2-carboxamide] | IC50 [1]: < 0.05 µM |
| 0.05 to 1 |  | CNC(=O)c1nc(-c2cccc(C(=O)NCc3ccco3)c2)cnc1N [Example 203, 3-amino-6-(3-{[(furan-2-ylmethyl)amino]carbonyl}phenyl)-N-methylpyrazine-2-carboxamide] |  |
|  | 0.05 to 1 | Nc1ncc(-c2cccc(C(=O)NCc3ccccc3)c2)nc1C(=O)NCC1CCNCC1 [Example 565, 3-amino-6-(3-{[(phenylmethyl)amino]carbonyl}phenyl)-N-(piperidin-4-ylmethyl)pyrazine-2-carboxamide] |  |
|  |  | Nc1ncc(-c2cccc(NC(=O)Cc3ccc(Cl)cc3Cl)c2)nc1-c1nnc([C@H]2CCCNC2)[nH]1 [Example 809, N-[3-(5-amino-6-{5-[(3S)-piperidin-3-yl]-4H-1,2,4-triazol-3-yl}pyrazin-2-yl)phenyl]-2-(2,4-dichlorophenyl)acetamide] | IC50 [1]: < 0.05 µM |
| 0.05 to 1 |  | CNC(=O)c1nc(-c2cccc(C(=O)N[C@@H]3CCN(Cc4c(Cl)cccc4Cl)C3)c2)cnc1N [Example 362, 3-amino-6-{3-[({(3R)-1-[(2,6-dichlorophenyl)methyl]pyrrolidin-3-yl}amino)carbonyl]phenyl}-N-methylpyrazine-2-carboxamide] |  |
|  | < 0.05 | CNC(=O)c1nc(-c2cccc(CNC3CCc4c(-c5ccccc5)cccc43)c2)cnc1N (centres unmarked) [Example 493, 3-amino-N-methyl-6-(3-{[(4-phenyl-2,3-dihydro-1H-inden-1-yl)amino]methyl}phenyl)pyrazine-2-carboxamide] |  |
| 1 to 10 |  | CNC(=O)c1nc(-c2cccc(C(=O)N3Cc4ccccc4C3)c2)cnc1N [Example 143, 3-amino-6-[3-(1,3-dihydro-2H-isoindol-2-ylcarbonyl)phenyl]-N-methylpyrazine-2-carboxamide] |  |
|  | 0.05 to 1 | NCCNC(=O)c1nc(-c2cccc(C(=O)NCc3ccccc3)c2)cnc1N [Example 616, 3-amino-N-(2-aminoethyl)-6-(3-{[(phenylmethyl)amino]carbonyl}phenyl)pyrazine-2-carboxamide] |  |
|  | 0.05 to 1 | CN(C)C(=O)c1nc(-c2cccc(CN[C@H]3CCc4ccccc43)c2)cnc1N [Example 554, 3-amino-6-(3-{[(1S)-2,3-dihydro-1H-inden-1-ylamino]methyl}phenyl)-N,N-dimethylpyrazine-2-carboxamide] |  |
|  |  | COc1ccc2c(CC(=O)Nc3cccc(-c4cnc(N)c(C(=O)N[C@H]5CCCNC5)n4)c3)coc2c1 [Example 911, 3-amino-6-[3-({[6-(methyloxy)-1-benzofuran-3-yl]acetyl}amino)phenyl]-N-[(3S)-piperidin-3-yl]pyrazine-2-carboxamide] | IC50 [1]: < 0.05 µM |
|  | 0.05 to 1 | CNC(=O)c1nc(-c2cccc(CN[C@H]3CCc4cc(F)cc(F)c43)c2)cnc1N [Example 483, 3-amino-6-[3-({[(1S)-5,7-difluoro-2,3-dihydro-1H-inden-1-yl]amino}methyl)phenyl]-N-methylpyrazine-2-carboxamide] |  |

| IC50 [µM] | IC50 (Table 11, Chk1 only) [µM] | SMILES | also measured |
| --- | --- | --- | --- |
|  |  | Nc1ncc(-c2cccc(C(=O)NCc3ccc(Cl)cc3F)c2)nc1-c1nc([C@H]2CCCNC2)n[nH]1 [Example 820, 3-(5-amino-6-{3-[(3S)-piperidin-3-yl]-1H-1,2,4-triazol-5-yl}pyrazin-2-yl)-N-[(4-chloro-2-fluorophenyl)methyl]benzamide] | IC50 [1]: < 0.05 µM |
| 0.05 to 1 |  | CNC(=O)c1nc(-c2cccc(C(=O)NCC(C)c3ccccc3)c2)cnc1N (centres unmarked) [Example 127, 3-amino-N-methyl-6-(3-{[(2-phenylpropyl)amino]carbonyl}phenyl)pyrazine-2-carboxamide] |  |
|  | 0.05 to 1 | CCN1CC[C@H](NC(=O)c2nc(-c3cccc(C(=O)N[C@H]4CCc5ccccc54)c3)cnc2N)C1 [Example 706, 3-amino-6-(3-{[(1S)-2,3-dihydro-1H-inden-1-ylamino]carbonyl}phenyl)-N-[(3S)-1-ethylpyrrolidin-3-yl]pyrazine-2-carboxamide] |  |
| 1 to 10 |  | CNC(=O)c1nc(-c2cccc(C(=O)NCc3ccc(N4CCN(C)CC4)cc3)c2)cnc1N [Example 290, 3-amino-N-methyl-6-{3-[({[4-(4-methylpiperazin-1-yl)phenyl]methyl}amino)carbonyl]phenyl}pyrazine-2-carboxamide] |  |
|  | 1 to 10 | Cc1nc(-c2nc(-c3cccc(C(=O)N[C@H]4CCc5ccccc54)c3)cnc2N)nn1-c1ccncc1 [Example 793, 3-[5-amino-6-(5-methyl-1-pyridin-4-yl-1H-1,2,4-triazol-3-yl)pyrazin-2-yl]-N-[(1S)-2,3-dihydro-1H-inden-1-yl]benzamide] |  |
|  |  | Nc1ncc(-c2cccc(CNS(=O)(=O)c3ccc(C(F)(F)F)cc3)c2)nc1C(=O)N[C@H]1CCCNC1 [Example 918, 3-amino-N-[(3S)-piperidin-3-yl]-6-{3-[({[4-(trifluoromethyl)phenyl]sulfonyl}amino)methyl]phenyl}pyrazine-2-carboxamide] | IC50 [1]: 0.05 to 1 µM |
|  | < 0.05 | Nc1ncc(-c2cccc(CN[C@H]3CCc4ccccc43)c2)nc1-c1nc(-c2ccccc2)n[nH]1 [Example 557, 5-(3-{[(1S)-2,3-dihydro-1H-inden-1-ylamino]methyl}phenyl)-3-(3-phenyl-1H-1,2,4-triazol-5-yl)pyrazin-2-amine] |  |
|  | 1 to 10 | C/C(=N\Nc1nccc(C(F)(F)F)n1)c1nc(-c2cccc(C(=O)NCc3ccccc3)c2)cnc1N [Example 636, 3-(5-amino-6-{(1E)-N-[4-(trifluoromethyl)pyrimidin-2-yl]ethanehydrazonoyl}pyrazin-2-yl)-N-(phenylmethyl)benzamide] |  |
|  |  | CSc1ccc(CNC(=O)c2cccc(-c3cnc(N)c(C(=O)N[C@H]4CCCNC4)n3)c2)cc1 [Example 864, 3-amino-6-{3-[({[4-(methylthio)phenyl]methyl}amino)carbonyl]phenyl}-N-[(3S)-piperidin-3-yl]pyrazine-2-carboxamide] | IC50 [1]: < 0.05 µM |
| 0.05 to 1 |  | CNC(=O)c1nc(-c2cccc(C(=O)N[C@@H]3c4ccccc4C[C@@H]3O)c2)cnc1N [Example 140, 3-amino-6-[3-({[(1R,2S)-2-hydroxy-2,3-dihydro-1H-inden-1-yl]amino}carbonyl)phenyl]-N-methylpyrazine-2-carboxamide] |  |
|  | 0.05 to 1 | CNC(=O)c1nc(-c2cccc(CNC3CCc4cc(O)ccc43)c2)cnc1N (centres unmarked) [Example 513, 3-amino-6-(3-{[(5-hydroxy-2,3-dihydro-1H-inden-1-yl)amino]methyl}phenyl)-N-methylpyrazine-2-carboxamide] |  |
| 0.05 to 1 |  | CNC(=O)c1nc(-c2cccc(NC(=O)Cc3ccc(Cl)cc3)c2)cnc1N [Example 155, 3-amino-6-(3-{[(4-chlorophenyl)acetyl]amino}phenyl)-N-methylpyrazine-2-carboxamide] |  |
| 0.05 to 1 |  | CNC(=O)c1nc(-c2cccc(NC(=O)Nc3ccc(F)cc3)c2)cnc1N [Example 89, 3-amino-6-[3-({[(4-fluorophenyl)amino]carbonyl}amino)phenyl]-N-methylpyrazine-2-carboxamide] |  |
|  |  | Nc1ncc(-c2cccc(C(=O)NCc3cc(Cl)ccc3Cl)c2)nc1-c1nc([C@H]2CCCNC2)n[nH]1 [Example 829, 3-(5-amino-6-{3-[(3S)-piperidin-3-yl]-1H-1,2,4-triazol-5-yl}pyrazin-2-yl)-N-[(2,5-dichlorophenyl)methyl]benzamide] | IC50 [1]: 0.05 to 1 µM |
|  | 0.05 to 1 | CCN1CCCC(c2nnc(-c3nc(-c4cccc(CN[C@H]5CCc6ccccc65)c4)cnc3N)[nH]2)C1 (stereo partly drawn) [Example 733, 5-(3-{[(1S)-2,3-dihydro-1H-inden-1-ylamino]methyl}phenyl)-3-[5-(1-ethylpiperidin-3-yl)-4H-1,2,4-triazol-3-yl]pyrazin-2-amine] |  |

| SMILES | IC50 [µM] | IC50 (Table 11, Chk1 only) [µM] | also measured |
| --- | --- | --- | --- |
| Nc1ncc(-c2ccccc2)nc1C(=O)NC1CCCCC1 [Example 14, 3-amino-N-cyclohexyl-6-phenylpyrazine-2-carboxamide] | ≥ 10 |  |  |
